{
  "source": "patent US20240024317A1",
  "about": "“CANCER TREATMENT USING BOSENTAN IN COMBINATION WITH A CHECKPOINT INHIBITOR” (Materia Therapeutics Inc., priority 2020, published 2024)",
  "key": {"4T1 tumors [1]": {"system": "4T1 tumors", "experiment": "Dynamic contrast-enhanced ultrasound (DCEUS) perfusion measures", "assay_type": "in vivo, mice", "conditions": "bosentan treated versus control or immunotherapy cocktail only", "protocol": "Dynamic contrast-enhanced ultrasound (DCEUS). Tumor associated vascular perfusion was assessed with DCEUS after bolus injection of contrast agents (8 μl of sulphur hexafluoride microbubbles encapsulated by a phospholipid shell with a mean diameter of 2.5 μm, retro-orbital administration). Ultrasound scanning of tumor was performed using the L12-5 transducer. Contrast first harmonic signals were received at 8 MHz with a mechanical index of 0.06. For all subjects the depth was set to 3 cm allowing measurements of the full depth of the tumor. Gain was set at 90% for each recording. Focus was optimized and standardized for each subject when finding the tumor area using B-mode imaging. Real-time power modulation imaging was started after flashing imaging with a high mechanical index to destroy the microbubbles in tumor tissue to peak contrast intensity to allow visualization of bubble replenishment. Image analysis was performed offline using an ultrasound quantification and analysis software (QLAB, Phillips Medical Systems). From the produced time intensity curves, we used as measures of perfusion the Mean transit time and the time required to reach the peak intensity (Rise time). […]"}, "4T1 tumors [2]": {"system": "4T1 tumors", "experiment": "CD3/CD31 immunofluorescence: T cell proximity to endothelial cells and area fractions", "assay_type": "in vivo, mice", "protocol": "Because reducing collagen I levels and tissue stiffness decompresses vessels, it was hypothesized that hypoxia, which is an indicator of decreased blood flow to the tumor, would be reduced with bosentan treatment. […] For the hypoxia studies, Mice bearing orthotopic E0771 or 4T1 breast tumors were injected (intraperitoneal) with 60 mg/kg of pimonidazole HCl at 2 hr prior to tumor removal. Prior to tumors excision, animals were anesthetized via Avertin (200 mg/kg, intraperitoneal). Primary tumors were then excised, fixed in 4% PFA, embedded in OCT and processed accordingly for IHC. Hypoxic regions were detected using the mouse anti-pimonidazole RED 549 conjugate antibody (HP7-100Kit, 1:100). Hypoxic area fraction across different treatment groups was normalized to DAPI staining. For fluorescent immunohistochemistry, tumors were removed, washed twice in 1× PBS for 10 min and incubated with 4% PFA overnight at 4° C. The fixative was aspirated, and samples washed twice in 1× PBS for 10 min. Fixed tissues were embedded in optimal cutting temperature compound in cryomolds (Tissue-Tek) and frozen completely at −20° C. Transverse 30 μm thick tumor sections were produced using the Tissue-Tek Cryo3 (SAKURA). Positively charged HistoBond microscope slides (Marienfeld) were used to bond four tissue sections per tumor. Tumor sections were then incubated in blocking solution (10% fetal bovine serum, 3% donkey serum, 1× PBS) for 2h and immunostained with the following primary antibodies; rabbit anti-Collagen I (ab4710, Abcam 1:100), rabbit anti-CD31 (ab28364, Abcam 1:50), rat anti-CD3 (17A2, BioLegend 1:50) and aSMA (ab5694, Abcam 1:50) overnight at 4° C. Secondary antibodies against rabbit, mouse or rat conjugated to Alexa Fluor 488 or 647 (Invitrogen) were used at 1:400 dilution. […] CD31 signal was detected with Alexa Fluor-488 anti-rabbit IgG (H+L) and CD3 signal with Alexa Fluor-647 anti-rat IgG (H+L) secondary antibodies. Tumor associated T cell and vessel content was determined by the CD31 and CD3 area fraction normalized to DAPI staining. […]"}},
  "data": [
    {"smiles": "COc1ccccc1Oc1c(NS(=O)(=O)c2ccc(C(C)(C)C)cc2)nc(-c2ncccn2)nc1OCCO", "note": "[bosentan, 4-tert-butyl-N-[6-(2-hydroxy-ethoxy)-5-(2-methoxy-phenoxy)-2-(pyrimidin-2-yl)pyrimidin-4-yl] benzenesulfonamide]", "values": [
      {"measurement": "mean transit time (DCEUS)", "setting": "4T1 tumors [1]", "result": "higher"},
      {"measurement": "rise time (DCEUS)", "setting": "4T1 tumors [1]", "result": "higher"},
      {"measurement": "T cells colocalizing with endothelial cells (CD3+/CD31+ proximity)", "setting": "4T1 tumors [2]", "result": "more T cells colocalizing with endothelial cells"},
      {"measurement": "area fraction of CD3+ staining", "setting": "4T1 tumors [2]", "result": "no change"},
      {"measurement": "area fraction of CD31+ staining", "setting": "4T1 tumors [2]", "result": "no change"}
    ]}
  ]
}
